Reference: patent US20100278782A1, “DIFFERENTIATION OF RAT LIVER EPITHELIAL CELLS INTO HEPATOCYTE-LIKE CELLS” (Vrije Universiteit Brussel, priority 2006, published 2010)

Tests used:
[1] = tested on: primary rat hepatocytes; assay: Inhibition of DNA synthesis (3H-methylthymidine incorporation) in EGF-stimulated primary rat hepatocytes; format: cell-based; details: DNA synthesis at day 3 (72 h), EGF 50 ng/ml
Description: Results are expressed as percentage of positive control (untreated cells cultured in the presence of mitogen). Total inhibition of hepatocyte proliferation is considered when DNA synthesis of treated cells equals DNA synthesis level of negative control (untreated cells cultivated in the absence of mitogen). Results shown are the means±SD from 4 or more independent experiments.
Screening of the anti-proliferative activity of the above compounds (effect on DNA synthesis) was performed as in example 10a.
The maximal (100%) inhibition of rat primary hepatocyte proliferation has been achieved with following concentrations:
Dose-dependent inhibition of cell proliferation by Jung-type HDACi after 3 days of incubation. Hepatocytes (0.4×10^5 cells/cm^2) were cultured in duplicate in a mixture of MEM/M199 (3:1, v/v) and stimulated to proliferate with EGF (50 ng/ml) 4 h after plating. Exposure to the indicated concentrations of HDACi started at time of plating and was maintained for 3 consecutive days. ^3H-methylthymidine incorporation was measured at day 3 (72 h) of culture. Cells cultured in the absence of EGF serve as a negative control for hepatocyte proliferation (neg. contr.) whereas cells stimulated with EGF alone serve as a positive control for hepatocyte proliferation (pos. contr.). Results are expressed as the percentage of maximal incorporation observed in hepatocytes cultured in the presence of EGF alone. Values shown are the means±SD of duplicate cultures of 3 experiments.

[2] = tested on: primary rat hepatocytes; assay: Location of cell cycle arrest in primary rat hepatocytes from cell cycle marker expression; format: cell-based; details: 3 days incubation; absence of cyclin D1 and cdk1 protein expression, prior to the restriction point
Source text: Assessed as in example 11a.
The effect of the different 6C-spacer compounds on the expression of key cell cycle proteins was investigated as well in order to identify the location of the cell cycle arrest.
Two cell cycle markers were studied as detailed in example 11a (see FIG. 8 for results): (a) cyclin D1, this protein is typically expressed when hepatocytes were able to pass the restriction point located in the mid-late G1 phase; and (b) cdk1, which is a marker for the S/G2/M phase (DNA synthesis takes place in the S phase).
Hepatocytes (0.4×10^5 cells/cm^2) were cultured in duplicate in a mixture of MEM/M199 (3:1; v/v) and stimulated to proliferate with EGF (50 ng/ml) 4 h after plating. Exposure to the indicated concentrations of HDACi started at time of plating and was maintained for 3 consecutive days: Cells were then harvested and analyzed for cyclin D1 and cdk1 expression levels (20 μg proteins/lane). Total ERK staining serves as a loading control.

[3] = tested on: CYP2 B1; assay: Expression of CYP450 isoforms in rat primary hepatocytes; format: cell-based; details: 4 days exposure; expression lost in untreated controls
Description: (§1) Measured as in example 11b.
(§2) Furthermore, pro-differentiating effect of AN-6, AN-8 and AN-10 was examined as described in example 11b. Namely, the expression of phase I biotransformation markers, CYP 450 isoforms was examined. […] In comparison, the expression of latter proteins was lost in controls (untreated cells).
(§3) Hepatocytes (0.57×10^5 cells/cm^2) were cultured in Williams' E medium supplemented with insulin (0.5 μg/ml), glucagon (7 ng/ml) and hydrocortisone (25 μg/ml). Exposure to the indicated concentrations of HDACi started at time of plating and was maintained for 4 consecutive days. Cells were harvested at indicated time points and analyzed for CYP2 B1 and CYP1 A1 expression levels (40 μg proteins/lane).

[4] = tested on: rat hepatocyte HDAC; assay: Fluor de Lys HDAC inhibition assay in crude rat hepatocyte lysates; format: biochemical; details: Fluor de Lys substrate, n = 3 or 4, read-out: Estimated IC50 values for tested compounds
Description: Screening of the HDAC inhibiting potencies of the above compounds was performed in crude rat hepatocyte lysates, prepared from freshly isolated cells, using the Fluor de Lys HDAC inhibition assay as detailed in example 9.
A two-step collagenase perfusion technique was used to isolate hepatocytes from male outbred Sprague-Dawley rats (200-300 g; Charles River Laboratories, Brussels, Belgium), which were kept under controlled environmental conditions (12 h light-dark cycle) and fed a standard diet (Animalabo A 04) with water ad libitum. Procedures for housing of the animals, and for isolation and cultivation of the rat hepatocytes were approved by the local ethical committee of the Vrije Universiteit Brussel (VUB, Brussels, Belgium).
Inhibition of HDAC activity was assessed in crude rat hepatocyte lysates by the Fluor de lys HDAC inhibition protocol as outlined herein:
HDAC Fluorescent Activity Assay/Drug Discovery Kit, Tebu-bio, AK-500.
• HDAC: thaw a rat hepatocyte cell extract (containing 6 mg/ml proteins) in tap water at room temperature, store on ice. • HDAC inhibitor:
Prepare a dilution series in assay buffer.
• Add 500 μl homogenisation buffer to 30×10^6 hepatocytes (pellets stored at −80° C.). • Ultrasonicate on ice 2×30 pulses • Let the homogenate(s) rest on ice during 5 min. • Transfer the homogenate(s) to 1.5 ml eppendorf tube(s) on ice, vortex vigorously. • Centrifugate at 14000 rpm in the microcentrifuge during 5 min at 4° C. • Determine the protein concentration (Bradford protein assay) of the supernatant, discard the pellets. • Dilute the extract(s) to a protein concentration of 6 mg/ml. Divide in aliquots of 500 μl (eppendorf tubes) and store for later use at −80° C.
1. bring 10 μl inhibitor/control solvents/assay buffer per well 2. add 15 μl cell extract to each well (for the blank: 15 μl boiled cell extract) 3. incubate 5 min at room temperature (cover plate with aluminium foil) 4. add 25 μl Fluor de Lys substrate to each well (40 μM solution, […]) 5. cover the plate with aluminium foil and incubate 15 min on orbital shaker 6. after 15 min, add 50 μl freshly prepared, ice-cold developer solution to each well 7. cover the plate with aluminium foil and incubate 15 min on orbital shaker 8. Measure the fluorescence in the plate reader
• Subtract the blank value (boiled extract) (background signal) • Calculate as % of ethanol control, that is set 100% • If the concentrations are spread around the 50% inhibition value, than the IC50 value can be calculated. […] (Note: the concentration should be set out as their logarithmic values)

[5] = tested on: HDAC; details: literature statement; cited from earlier work
[6] = tested on: freshly isolated rat hepatocytes; details: incubated with freshly isolated rat hepatocytes, compared with TSA; cited from earlier work
[7] = tested on: CYP1 A1; assay: Expression of CYP450 isoforms in rat primary hepatocytes; format: cell-based; details: 4 days exposure; expression lost in untreated controls
Description: as §1, §2, §3

[8] = tested on: RLEC; assay: Morphology of RLEC differentiated in the presence of an HDAC inhibitor; format: cell-based, rat
Description: FIG. 15 illustrates morphology of RLEC differentiated in the presence of an HDAC inhibitor, as explained in example 13.
RLEC at 100% confluence are used for differentiation into hepatocyte-like cells: • after sub-cultivation, detach cells as described above and suspend all cells derived from 1 T75 and 1 T150 in 3 ml and 6 ml of new growth medium (37° C.), respectively. • homogenize the cell suspension by pipetting up and down. • add 420 μl growth medium to a 2 cm^2-well • transfer 80 μl of cell suspension to the middle of a 2 cm^2-well, precoated with 50-100 μg/ml collagen type I • tap to homogenize cell suspension; check cells under microscope • incubate cells at 37° C. in growth medium until cells have reached 100% confluence. • At 100% confluence, remove growth medium and expose cells to basal medium supplemented with liver specific factors, as follows: 1. days 0-1: 10 ng/ml FGF-4 2. days 1-3: 10 ng/ml FGF-4, 20 ng/ml HGF 3. days 3-6: 5 ng/ml FGF-4, 30 ng/ml HGF, 0.5×ITS 4. days 6-9: 30 ng/ml HGF, 0.25×ITS; 0.05 μM dexamethasone 5. days 9-12: 20 ng/ml HGF, 0.05 μM dexamethasone 6. days 12-15: 10 ng/ml HGF; 10 ng/ml OSM, 0.05 μM dexamethasone 7. From day 15 on: 10 ng/ml OSM, 0.05 μM dexamethasone
RLEC are differentiated without initial FGF-4 exposure, according to the following sequence:
1. days 0-3: 20 ng/ml HGF 2. days 3-6: 5 ng/ml FGF-4, 30 ng/ml HGF, 0.5×ITS 3. days 6-9: 30 ng/ml HGF, 0.25×ITS; 0.05 μM dexamethasone 4. days 9-12: 20 ng/ml HGF, 0.05 μM dexamethasone 5. days 12-15: 10 ng/ml HGF; 10 ng/ml OSM, 0.05 μM dexamethasone 6. From day 15 on: 10 ng/ml OSM, 0.05 μM dexamethasone
The results are illustrated in FIG. 15. […] The cells still have the characteristic RLEC shape. […] Optimisation of HDAC inhibitor concentration to reduce cell death is within the reach of a skilled person.

[9] = tested on: HNF-4; assay: LETF immunofluorescence during hepatic differentiation of RLECs; format: cell-based, rat; details: TSA added to Sequential 3 differentiation protocol
Description: (§4) A: HNF-3b, B: HNF-4, C: HNF-1a, a: with DAPI counterstain, b: without DAPI counterstain.
(§5) • rinse cells 3× with PBS • fix nuclear and cytoplasmic proteins at room temperature for 10 min with 4% PFA (cold), connexins at −20° C. for 10 min with Ethanol/Aceton (50/50) and cytoskeletal proteins at −20° C. for 10 min with Ethanol. • wash 3×5 min with PBS • proceed with staining or store wells in PBS at 4° C. • check cells under microscope for autofluorescence and attachment • incubate 15 min with 100 mM glycin in PBS (used to saturate reactive groups generated after PFA fixation) • wash 3×5 min with PBS • incubate 15 min with PBST (permeabilization) • rinse 3× with PBS • block 45 min with block buffer at room temperature • incubate overnight at 4° C. with primary Ab diluted in PBS • rinse with PBS • wash 4×15 min with PBS • incubate with fluorescence-labeled secondary Ab 1 h 30 at room temperature (dilute Ab in PBS) • keep dark • wash 4×15 min with PBST • rinse with distilled water • mount with Vectashield with DAPI (use 3 drops per well)
(§6) For this experiment, the protocols of example 5 were used to differentiate RLECs towards the hepatic lineage with the exception of the sequential procedure. Sequential 3 from example 6 was used to differentiate the cells instead of the one stated in example 5. The immunofluorescence protocol-staining on cultured cells was used as stated in example 8.

[10] = tested on: HNF-3β; assay: as above; format: cell-based, rat; details: TSA added to Sequential 3 differentiation protocol
Description: as §4, §5, §6

[11] = tested on: HNF-1α; assay: as above; format: cell-based, rat; details: TSA added to Sequential 3 differentiation protocol
Description: as §4, §5, §6

Structure (SMILES)	Concentration achieving maximal (100%) inhibition of rat primary hepatocyte proliferation [1] [µM]	Cell cycle arrest [2]	IC50 [4] [nM]	also measured
CN(C)c1ccc(C(=O)NCCCCCC(=O)NO)cc1 [AN-6, 6-(4-dimethylaminobenzoyl)-aminocaproic acid hydroxamid]	10	induced an early G1 cell cycle arrest	24 ± 2	CYP2 B1 expression during the entire culture period [3]: remarkable ability to maintain
O=C(CCCCCNC(=O)c1ccccc1)NO [AN-5]	50	able to induce a similar early G1 cell cycle arrest		
O=C(CCCCCNC(=O)c1ccc(N2CCCC2)cc1)NO [AN-8]	7.5	induced an early G1 cell cycle arrest	55 ± 19	
O=C(CCCCCNC(=O)c1ccc(N2CCCCC2)cc1)NO [AN-15]			500 ± 108	
CN(C)c1ccc(C(=O)NCCCCC(=O)NO)cc1				HDAC inhibitory activity [5]: potent HDAC inhibitor; Metabolic stability [6]: metabolically more stable than TSA
CN(C)c1ccc(C(=O)NCCCCC(=O)NO)cc1 [AN-1, 5-(4-dimethylaminobenzoyl)-aminovaleric acid hydroxamid]	50		301 ± 28	
O=C(CCCCCNC(=O)c1cc2ccccc2[nH]1)NO [AN-10]	7.5	induced an early G1 cell cycle arrest	14 ± 4	CYP1 A1 expression during the entire culture period [7]: remarkable ability to maintain
O=C(CCCCNC(=O)c1ccc(N2CCOCC2)cc1)NO [AN-14]			4490 ± 1820	
O=C(CCCCCNC(=O)c1ccc(Cl)cc1)NO [AN-7]			84 ± 27	
CC(/C=C/C(=O)NO)=C\[C@@H](C)C(=O)c1ccc(N(C)C)cc1 [TSA, Trichostatin A]				Morphology of differentiating RLEC ([8]; 320 nM, D2, example 13 sequence): more polygonal shape; Morphology of differentiating RLEC ([8]; 1 μM, D9, example 13 sequence): differentiate into binuclear, polygonal to cuboidal shaped cells; Cell death of differentiating RLEC ([8]; 1 μM, example 13 sequence): causes some cell death; Morphology of differentiating RLEC ([8]; protocol of example 5 with TSA addition): more fibroblast like shape; HDAC inhibitory activity [5]: potent specific inhibitor of Class I and Class II HDAC in vitro and in vivo; HNF-4 expression and activity [9]: expressed and active from D3 onwards, either with or without addition of TSA; HNF-3β expression and localisation [10]: already expressed at D3 of the differentiation process and is located inside the nucleus; HNF-1α expression and localisation [11]: induces expression of HNF-1α in nucleus already on D3
O=C(CCCCNC(=O)c1cc2ccccc2[nH]1)NO [AN-9]			313 ± 50	
O=C(CCCCNC(=O)c1ccc(N2CCCCC2)cc1)NO [AN-13]			2250 ± 616	
O=C(CCCCCNC(=O)c1ccc(N2CCOCC2)cc1)NO [AN-16]			1010 ± 310	
